Data reported in a melting point compilation (Tetko et al.; mined from patent text by program, amines drawn as free bases though some values may be those of a salt).

With `CCOC(=O)c1c(N2CCN(C(=O)c3cccs3)CC2)c2sccc2n(CC(=O)c2ccccc2)c1=O` as the compound, how does the melting point read?
Its melting point is 240 °C.

For `COc1cccc2c1OC1C=CC=C3C(=O)N(CC4CC4)C(=O)CC321` (stereo not drawn), which melting point is on record?
Its melting point is 166 to 167 °C.

For `CNC(=O)c1sc(N2CCN(Cc3ccc(F)cc3)C2=O)nc1C`, which melting point is on record?
The melting point was 225 to 227 °C.

With `CCc1sc(N2C(=O)c3ccccc3C2=O)c(C(=O)c2ccc(Cl)cc2)c1C` as the compound, how does the melting point read?
The melting point was 115 to 117 °C.

Which melting point does the source give for `CC1CCn2nc(S(=O)(=O)Nc3c(Cl)cccc3Cl)nc2N1` (stereo not drawn) here?
Its melting point is 230 to 235 °C.

With `COc1ccc(C(=O)Nc2ccncc2)c2c1oc1ccccc12` as the compound, how does the melting point read?
The melting point was 215 °C.

For `COc1ccc(C(=O)c2c(F)cccc2F)cc1OC`, which melting point is on record?
Its melting point is 100 to 101 °C.

With `O=C(C(=O)c1cccc(OCc2ccccc2)c1)c1cc[nH]c1` as the compound, how does the melting point read?
Its melting point is 124 to 125 °C.

With `Nc1sc(-c2ccccn2)c(CN(C2CCCCC2)C2CCCCC2)c1C(=O)c1ccc(Cl)cc1` as the compound, how does the melting point read?
Its melting point is 192 to 194 °C.

For `COCCOc1ccc(C2=NCCNC2=O)cc1`, which melting point is on record?
Its melting point is 130 to 132 °C.

With `Cc1c(NC(=O)c2ccc(-c3ccc(Cl)s3)cc2)ccc2cc(CN3CCCC3)cnc12` as the compound, how does the melting point read?
The melting point was 210 to 211 °C.

Which melting point does the source give for `COC1(c2ccccc2)CCc2c(C(=O)N3CCC3)cc3c(nc(C)n3C)c2O1` (stereo not drawn) here?
Its melting point is 147 to 150 °C.

Which melting point does the source give for `CS(=O)(=O)c1ccc(-c2cnn(-c3ccc(F)cc3)c(=O)c2C2CCCCC2)cc1` here?
Its melting point is 231 to 233 °C.

For `CCn1c2ccccc2c2cc(OC)c(C#N)cc21`, which melting point is on record?
Its melting point is 145 to 155 °C.

With `O=C1c2ccccc2C(=O)N1Cc1nnc2n1-c1ccc(Cl)cc1C(c1ccccc1F)=CC2` as the compound, how does the melting point read?
The melting point was 235 to 237 °C.

With `CNC(=O)c1cnc(N2CCOCC2)cc1-c1ccccc1C` as the compound, how does the melting point read?
Its melting point is 156 to 158 °C.

With `Cn1c(=O)n(Cc2ccc(F)cc2)c(=O)c2cc(C#CCc3ccccc3)ccc21` as the compound, how does the melting point read?
The melting point was 160 °C.

With `CCOC(=O)C1=C(C)NN=C(CC)C1c1cccc([N+](=O)[O-])c1` (stereo not drawn) as the compound, how does the melting point read?
Its melting point is 124 °C.

Which melting point does the source give for `CCCC1CCc2c3c(c(F)c(F)c2O1)OC(C)C3` (stereo not drawn) here?
Its melting point is 87 °C.

With `CCCCNC(=O)ON1C(C)(C)CC(OC(=O)c2ccccc2)CC1(C)C` as the compound, how does the melting point read?
The melting point was 126 to 127 °C.

For `COc1ccc(Br)c2ccc(C(F)(F)F)nc12`, which melting point is on record?
The melting point was 84 to 85 °C.

Which melting point does the source give for `Cc1cc(-n2ccnc2)c2cccc(OCc3c(Cl)ccc(S(=O)(=O)N4CCC[C@H]4C(=O)NCCCN(C)C(=O)OC(C)(C)C)c3Cl)c2n1` here?
The melting point was 75 °C.

Which melting point does the source give for `O=C(O)CCC(CS(=O)(=O)c1ccc2ccccc2c1)C(=O)N(CCC1CCCCC1)CCC1CCCCC1` (stereo not drawn) here?
Its melting point is 138 to 140 °C.

With `CC(C)N1C(=O)C2CC2(c2ccc(N)cc2)C1=O` (stereo not drawn) as the compound, how does the melting point read?
The melting point was 160 to 163 °C.

For `Cc1ccc(N2CCN(CCC3CN(C)C(=O)O3)CC2)cc1C` (stereo not drawn), which melting point is on record?
Its melting point is 96 to 97 °C.

For `O=C1Nc2cccc(Br)c2C(=O)N2CC[C@@H]12`, which melting point is on record?
The melting point was 182 to 183 °C.

For `Cc1cccc(-c2[nH]c(C(C)C)nc2-c2cccc(-c3ccc(OC(F)(F)F)cc3)c2)n1`, which melting point is on record?
Its melting point is 120 to 122 °C.

With `CCOC(=O)c1cnc(N2CCSCC2)nc1Cl` as the compound, how does the melting point read?
Its melting point is 81 to 83 °C.

For `COc1cc(CNc2n[nH]c3ncnc(Nc4cccc(Cl)c4)c23)cc(OC)c1`, which melting point is on record?
Its melting point is 208 to 209 °C.

Which melting point does the source give for `Cc1nccc2c3ccc(OCc4ccc(F)cc4)cc3n(Cc3ccc(F)cc3)c12` here?
The melting point was 175 °C.

Which melting point does the source give for `COc1c(F)ccc2c1C(=O)N1CC[C@H]1c1c(-c3noc(CN)n3)ncn1-2` here?
Its melting point is 196 to 198 °C.

Which melting point does the source give for `Cc1[nH]c(=O)n(C2CCCCC2)c1-c1ccc(Oc2ccccc2)cc1` here?
The melting point was 198 °C.

Which melting point does the source give for `O=C(Nc1nccs1)c1cccc(-c2ccc3c(c2)C(Nc2ccc(Cl)cc2Cl)CO3)c1` (stereo not drawn) here?
The melting point was 221 to 222 °C.

With `N#Cc1ccc(CCCCC2CC(c3cccnc3)=CC(=O)O2)cc1` (stereo not drawn) as the compound, how does the melting point read?
The melting point was 110 to 112 °C.

Which melting point does the source give for `CC(C)(C)OC(=O)NCc1ccnc(Cl)n1` here?
The melting point was 86 to 88 °C.

For `CC1(C)CC(C)(C#N)c2cn(-c3ccc(F)cc3)c(C=O)c21` (stereo not drawn), which melting point is on record?
Its melting point is 165 to 168 °C.

With `COc1ccc(CCc2ccc(NC(=O)C(=O)c3sc4ccccc4c3O)cc2)cc1OC` as the compound, how does the melting point read?
The melting point was 203 °C.

For `CC(=O)NCc1ccc(CN2CCN(c3ncccn3)CC2)cc1`, which melting point is on record?
The melting point was 120 to 121 °C.
